Assay results reported in ChEMBL document CHEMBL3885861, “Open TG-GATES”.

Organism: Rattus norvegicus
Experiment: Open TG-GATES - Regimen: Daily Repeat
Type: toxicity, organism-based, Sprague-Dawley
Design: regimen Daily Repeat, gender Male, age 6 weeks
Settings: in vivo, po, 6 mg/kg, […], route gavage, dose level High; for KIDNEY_L / KIDNEY_R / KIDNEY_TOTAL: tissue Kidney; for LIVER: tissue Liver; for A/G / ALP / ALT / AST / BUN / CRE / Ca / Cl / DBIL / GLC / IP / K / LDH / Na / PL / RALB / TBIL / TC / TG / TP / gamma-GTP: tissue Plasma

## O=NN(CCCl)C(=O)NC1CCCCC1 [LOMUSTINE]
Tissue Blood, time 28 day
  Lym: 58.5%
  MCH: 18.9 pg
  MCHC: 34.5%
  MCV: 54.6 fL
  Mono: 22.5%
  Neu: 18.8%
  PT: 11.6 s
  Plat: 121.1 x10_4/uL
  RBC: 832.2 x10_4/ul
  Ret: 2.5%
  WBC: 114.2 x10_2/uL
Time 7 day
  KIDNEY_L: 1 g
  KIDNEY_R: 1 g
  KIDNEY_TOTAL: 2.1 g
  LIVER: 10.6 g
  A/G: 1.7
  ALP: 656.6 IU/L
  ALT: 48.4 IU/L
  AST: 97 IU/L
  BUN: 16.6 mg/dL
  CRE: 0.5 mg/dL
  Ca: 11.2 mg/dL
  Cl: 105.6 meq/L
  DBIL: 0.03 mg/dL
  GLC: 170.4 mg/dL
  IP: 7.3 mg/dL
  K: 4.7 meq/L
  LDH: 139.6 IU/L
  Na: 139.2 meq/L
  PL: 156 mg/dL
  RALB: 3.8 g/dL
  TBIL: 0.3 mg/dL
  TC: 98.4 mg/dL
  TG: 55.8 mg/dL
  TP: 6.1 g/dL
  gamma-GTP: 2.6 IU/L
Time 14 day
  KIDNEY_L: 1.1 g
  KIDNEY_R: 1.1 g
  KIDNEY_TOTAL: 2.1 g
  LIVER: 10.5 g
  A/G: 1.6
  ALP: 694.4 IU/L
  ALT: 101.6 IU/L
  AST: 223.6 IU/L
  BUN: 23.4 mg/dL
  CRE: 0.6 mg/dL
  Ca: 11.3 mg/dL
  Cl: 105.8 meq/L
  DBIL: 0.3 mg/dL
  GLC: 159.8 mg/dL
  IP: 6.4 mg/dL
  K: 4.7 meq/L
  LDH: 210.6 IU/L
  Na: 139.6 meq/L
  PL: 236.8 mg/dL
  RALB: 3.8 g/dL
  TBIL: 0.4 mg/dL
  TC: 159.8 mg/dL
  TG: 48.2 mg/dL
  TP: 6.2 g/dL
  gamma-GTP: 4.6 IU/L
Time 28 day
  KIDNEY_L: 1.4 g
  KIDNEY_R: 1.3 g
  KIDNEY_TOTAL: 2.7 g
  LIVER: 9.5 g
  A/G: 1.3
  ALP: 520.8 IU/L
  ALT: 153.2 IU/L
  AST: 484.2 IU/L
  BUN: 31.2 mg/dL
  CRE: 0.2 mg/dL
  Ca: 11.3 mg/dL
  Cl: 106.2 meq/L
  DBIL: 3.9 mg/dL
  GLC: 137 mg/dL
  IP: 5.9 mg/dL
  K: 4.8 meq/L
  LDH: 298.8 IU/L
  Na: 142.2 meq/L
  PL: 301 mg/dL
  RALB: 3.5 g/dL
  TBIL: 3.3 mg/dL
  TC: 207.2 mg/dL
  TG: 118 mg/dL
  TP: 6.1 g/dL
  gamma-GTP: 11.8 IU/L
